In US20180325889A1, “IMMUNOREGULATORY AGENTS” (FLEXUS BIOSCIENCES, INC., priority 2014, published 2018) one finds IC50 and melting point data, which are given here for seven compounds.

By IC50 is commonly meant the concentration that gives 50% inhibition. Broadly, the melting point is the temperature, or range, at which the solid turns liquid.

Some results are limits rather than exact numbers.

T1 sequence (P14902 whole entry): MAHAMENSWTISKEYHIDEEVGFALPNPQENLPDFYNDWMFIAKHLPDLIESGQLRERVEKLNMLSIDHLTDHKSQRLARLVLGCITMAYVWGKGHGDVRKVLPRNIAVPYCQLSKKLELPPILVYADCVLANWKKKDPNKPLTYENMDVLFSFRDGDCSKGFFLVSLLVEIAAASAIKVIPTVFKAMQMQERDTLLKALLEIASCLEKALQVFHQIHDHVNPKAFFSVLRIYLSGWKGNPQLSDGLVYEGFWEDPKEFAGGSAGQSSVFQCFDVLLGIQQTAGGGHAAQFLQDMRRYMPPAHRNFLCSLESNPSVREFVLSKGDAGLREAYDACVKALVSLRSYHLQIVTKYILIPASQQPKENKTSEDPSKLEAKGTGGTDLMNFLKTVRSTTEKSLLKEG

The first data set addresses T1, human IDO1/HEK293 cells (Homo sapiens, UniProt P14902).
T1 construct: expressed in transfected cells
In words: HEK Human IDO-1 cell-based IDO inhibition assay (kynurenine production). To be noted: HEK293 cells stably expressing human IDO1, 20 hours incubation, absorbance at 490 nm; read-out: HEK Human IDO-1 Bio Activity (IDO IC50). Put shortly:
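Stopped with 0.2% TCA, 50 °C 30 min; supernatant mixed with 0.2% Ehrlich reagent, 30 min RT, kynurenine read as absorbance at 490 nm.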
As for `O=C(NCC1(O)CCN(c2ccnc3ccc(F)cc23)CC1)c1ccc(Cl)cc1` [Example 81, 4-Chloro-N-((1-(6-fluoroquinolin-4-yl)-4-hydroxypiperidin-4-yl)methyl)benzamide], the IC50 is under 2000 nM.

For the compound `C[C@@H](NC(=O)c1ccc(-c2ncc(C#N)s2)cc1)[C@H]1CC[C@@H](c2ccnc3ccc(F)cc32)CC1` [Example 253, 4-(5-cyanothiazol-2-yl)-N-((R)-1-((1s,4S)-4-(6-fluoroquinolin-4-yl)cyclohexyl)ethyl)benzamide], the half-maximal inhibitory concentration (IC50) is under 50 nM.

Turning to `CCC(NC(=O)c1ccc(Cl)cc1)[C@H]1CC[C@@H](c2ccnc3ccc(C(F)(F)F)cc32)CC1` (some centres unmarked) [Example 254, 4-chloro-N-(1-((1s, 4s)-4-(6-(trifluoromethyl)quinolin-4-yl)cyclohexyl)propyl)benzamide], the IC50 was under 50 nM.

For the compound `CCC(NC(=O)c1ccc(-n2cccc2)cc1)[C@H]1CC[C@@H](c2ccnc3ccc(C(F)(F)F)cc32)CC1` (some centres unmarked) [Example 255, 4-(1H-pyrrol-1-yl)-N-(1-((1s, 4s)-4-(6-(trifluoromethyl)quinolin-4-yl)cyclohexyl)propyl)benzamide], the IC50 is under 50 nM.

On to `CCC(NC(=O)c1ccc(OC)nc1)[C@H]1CC[C@@H](c2ccnc3ccc(C(F)(F)F)cc32)CC1` (some centres unmarked) [Example 256, 6-methoxy-N-(1-((1s, 4S)-4-(6-(trifluoromethyl)quinolin-4-yl)cyclohexyl)propyl)nicotinamide], for which the IC50 is under 50 nM.

For `CCC(NC(=O)c1ccc(-c2ccccc2)cc1)C1CCC(c2ccnc3ccc(F)cc23)CC1` (centres unmarked) [Example 258, N-(1-(4-(6-fluoroquinolin-4-yl)cyclohexyl)propyl)bi-phenyl-4-carboxamide], the IC50 is under 50 nM.

On to “(R)-1-(cis-4-(6-fluoroquinolin-4-yl)cyclohexyl)-N-methylethanamine [Example 194]”, for which the concentration for half-maximal inhibition (IC50) is under 50 nM.

Test system in a further data set: not given
Assay: not given
Settings: not given
Consider `O=C(NCC1(O)CCN(c2ccnc3ccc(F)cc23)CC1)c1ccc(Cl)cc1` [Example 81, 4-Chloro-N-((1-(6-fluoroquinolin-4-yl)-4-hydroxypiperidin-4-yl)methyl)benzamide], for which the melting point lay in the range of 91 to 94 °C.
